Test results: US9023398B2, “Method for improving the aqueous solubility of poorly-soluble substances” (Kabushiki Kaisha Sangi, priority 2009, dated 2015)
Where a name gives a salt, the structure may show the parent alone.

Assays:
[1] = Description: The rotation number of the stirrer was 120 rpm, and all of the tests were conducted in a thermostat at 37±0.5° C. Two types of test solutions, namely, distilled water and 2nd fluid for disintegration test (pH 6.8) of the Japanese Pharmacopoeia were used. As such 2nd fluid for disintegration test of the Japanese Pharmacopoeia, a solution prepared by diluting the 10-fold concentration solution of Kanto Kagaku Co., Ltd. with distilled water was used.
A comparative test was carried out in the same manner as that described above with the exception that a poorly-soluble substance or the like was used in an amount equal to that of a substance with improved aqueous solubility, instead of the substance with improved aqueous solubility.
1 mL of the solution was sampled in an Eppendorf centrifuge tube, 1, 3, 10, 30, 60, 180 and 360 minutes after initiation of the test. The thus sampled solution was centrifuged at 12,000 rpm for 5 minutes. […] In the case of the comparative test, the poorly-soluble substance or the like, which had not been dissolved in the solution, was removed. An aliquot of this supernatant was immediately frozen. The frozen sample was freeze-dried, and it was then used as a sample in the measurement of the amount of the substance with improved aqueous solubility, which had been dissolved in the test solution. The dissolved poorly-soluble substance was measured mainly using a dual wavelength absorption photometer.
Moreover, a comparative test was carried out using silica fume instead of the calcium compound microparticles. Specifically, a coating treatment was carried out according to the same method as that described in the above section “6-1.

[2] = Dissolution test of poorly-soluble substances using distilled water; assay type: physicochemical
[3] = Dissolution test of poorly-soluble substances using 2nd fluid for disintegration test (pH 6.8) of the Japanese Pharmacopoeia; assay type: physicochemical
Procedure: From initiation of the test, the mixed solution was stirred with a stirrer having a length of 15 mm. The rotation number of the stirrer was 120 rpm, and all of the tests were conducted in a thermostat at 37±0.5° C. Two types of test solutions, namely, distilled water and 2nd fluid for disintegration test (pH 6.8) of the Japanese Pharmacopoeia were used. As such 2nd fluid for disintegration test of the Japanese Pharmacopoeia, a solution prepared by diluting the 10-fold concentration solution of Kanto Kagaku Co., Ltd. with distilled water was used.

Row | Structure (SMILES) | solubility-improving effect [1] | also measured
1 | N[C@@H](CSCC(=O)O)C(=O)O [L-carbocysteine] | a solubility-improving effect was obtained | 
2 | O=C(O)c1cc(/N=N/c2ccc(S(=O)(=O)Nc3ccccn3)cc2)ccc1O [salazosulfapyridine] | a solubility-improving effect was obtained | 
3 | CC(C)Cc1ccc(C(C)C(=O)O)cc1 (stereo not drawn) [ibuprofen] | a solubility-improving effect was obtained | 
4 | C[C@@H]1[C@H](O)[C@@H](C)/C=C/C=C/CC/C=C/C=C/C=C/C=C/C(O[C@H]2O[C@H](C)[C@@H](O)[C@H](N)[C@@H]2O)CC2O[C@](O)(CC(O)C(O)CCC(O)CC(O)CC(O)CC(=O)O[C@H]1C)CC(O)C2C(=O)O (stereo partly drawn) [nystatin] | a solubility-improving effect was obtained | 
5 | CC1CNc2c(cccc2S(=O)(=O)N[C@@H](CCCNC(=N)N)C(=O)N2CC[C@@H](C)C[C@@H]2C(=O)O)C1 (stereo partly drawn) [argatroban] | a solubility-improving effect was obtained | 
6 | Clc1ccc2c(c1)C(N1CCNCC1)=Nc1ccccc1O2 [amoxapine] | a solubility-improving effect was obtained | 
7 | CCCCC(=O)O[C@H]1CC[C@H]2[C@@H]3CCc4cc(O)ccc4[C@H]3CC[C@]12C [estradiol valerate] | a solubility-improving effect was obtained | 
8 | CC(C)(O/N=C(\C(=O)N[C@@H]1C(=O)N2C(C(=O)[O-])=C(C[n+]3ccccc3)CS[C@H]12)c1csc(N)n1)C(=O)O [ceftazidime] | a solubility-improving effect was obtained | 
9 | C[C@]12CC[C@@H]3c4ccc(OC(=O)c5ccccc5)cc4CC[C@H]3[C@@H]1CC[C@@H]2O [estradiol benzoate] | a solubility-improving effect was obtained | 
10 | O=C(Nc1ccc(Cl)cc1)Nc1ccc(Cl)c(Cl)c1 [10-1, Trichlorocarbanilide] | a solubility-improving effect was obtained | Dissolved amount ([2]; Dissolution test using water, elution time 1 min): 0.0 µg/mL; Dissolved amount ([2]; Dissolution test using water, elution time 3 min): 0.1 µg/mL; Dissolved amount ([2]; Dissolution test using water, elution time 10 min): 0.4 µg/mL; Dissolved amount ([2]; Dissolution test using water, elution time 30 min): 0.4 µg/mL; Dissolved amount ([2]; Dissolution test using water, elution time 60 min): 0.4 µg/mL; Dissolved amount ([2]; Dissolution test using water, elution time 180 min): 0.5 µg/mL; Dissolved amount ([2]; Dissolution test using water, elution time 360 min): 0.6 µg/mL; Dissolved amount ([2]; Distilled water, trichlorocarbanilide, elution time not printed in Table 13): 0.6 µg/mL; Dissolved amount ([3]; 2nd fluid for disintegration test, elution time 1 min): 0.0 µg/mL; Dissolved amount ([3]; 2nd fluid for disintegration test, elution time 3 min): 0.3 µg/mL; Dissolved amount ([3]; 2nd fluid for disintegration test, elution time 10 min): 0.6 µg/mL; Dissolved amount ([3]; 2nd fluid for disintegration test, elution time 30 min): 0.8 µg/mL; Dissolved amount ([3]; 2nd fluid for disintegration test, elution time 60 min): 1.1 µg/mL; Dissolved amount ([3]; 2nd fluid for disintegration test, elution time 180 min): 1.3 µg/mL; Dissolved amount ([3]; 2nd fluid for disintegration test, elution time 360 min): 1.5 µg/mL; Dissolved amount ([3]; Second disintegration test medium, trichlorocarbanilide, elution time not printed in Table 13): 1.5 µg/mL
11 | C[C@H]1[C@H](NC(=O)/C(=N\OC(C)(C)C(=O)O)c2csc(N)n2)C(=O)N1S(=O)(=O)O [aztreonam] | a solubility-improving effect was obtained | 
12 | CN(C)/N=N/c1[nH]cnc1C(N)=O [dacarbazine] | a solubility-improving effect was obtained | 
13 | C=CC[C@@H]1/C=C(\C)C[C@H](C)C[C@H](OC)[C@H]2O[C@@](O)(C(=O)C(=O)N3CCCC[C@H]3C(=O)O[C@H](/C(C)=C/[C@@H]3CC[C@@H](O)[C@H](OC)C3)[C@H](C)[C@@H](O)CC1=O)[C@H](C)C[C@@H]2OC [tacrolimus hydrate] | a solubility-improving effect was obtained | 
14 | CN1CCC[C@@H]1CCO[C@](C)(c1ccccc1)c1ccc(Cl)cc1 [clemastine fumarate] | a solubility-improving effect was obtained | 
15 | C[C@]12CC[C@@H]3c4ccc(O)cc4CC[C@H]3[C@@H]1C[C@@H](O)[C@@H]2O [estriol] | a solubility-improving effect was obtained | 
16 | CO/N=C(\C(=O)N[C@@H]1C(=O)N2C(C(=O)O)=C(CSc3nnnn3C)CS[C@H]12)c1csc(N)n1 [cefmenoxime hydrochloride] | a solubility-improving effect was obtained | 
17 | CCCCCC(=O)O[C@]1(C(C)=O)CC[C@H]2[C@@H]3CCC4=CC(=O)CC[C@]4(C)[C@H]3CC[C@@]21C [hydroxyprogesterone caproate] | a solubility-improving effect was obtained | 
18 | CC(=O)O[C@H]1C(=O)[C@@]2(C)[C@H]([C@H](OC(=O)c3ccccc3)[C@]3(O)C[C@H](OC(=O)[C@H](O)[C@@H](NC(=O)c4ccccc4)c4ccccc4)C(C)=C1C3(C)C)[C@]1(OC(C)=O)CO[C@@H]1C[C@@H]2O [paclitaxel] | a solubility-improving effect was obtained | 
19 | CC/C=C\C/C=C\C/C=C\C/C=C\C/C=C\CCCC(=O)OCC [ethyl icosapentate] | a solubility-improving effect was obtained | 
20 | CC(=O)O[C@@]12CO[C@@H]1C[C@H](O)[C@@]1(C)C(=O)[C@H](O)C3=C(C)[C@@H](OC(=O)[C@H](O)[C@@H](NC(=O)OC(C)(C)C)c4ccccc4)C[C@@](O)([C@@H](OC(=O)c4ccccc4)[C@H]21)C3(C)C [docetaxel hydrate] | a solubility-improving effect was obtained | 
